Earlier results as cited in US20220117915A1, “METHODS OF TREATING ACUTE STRESS DISORDER AND POSTTRAUMATIC STRESS DISORDER” (Tonix Pharma Holdings Limited, priority 2018, published 2022).
Blank lines part the entries; values can stand above or below the compound they belong to.

Legend:
[1] = target: serotonergic-2A (5-HT2A) receptor (Homo sapiens, UniProt P28223)
[2] = target: alpha-adrenergic-1A (α1A) receptor (Homo sapiens, UniProt P35348)
[3] = ASD or very early PTSD

Chain of serotonergic-2A (5-HT2A) receptor (P28223 whole entry, species assumed): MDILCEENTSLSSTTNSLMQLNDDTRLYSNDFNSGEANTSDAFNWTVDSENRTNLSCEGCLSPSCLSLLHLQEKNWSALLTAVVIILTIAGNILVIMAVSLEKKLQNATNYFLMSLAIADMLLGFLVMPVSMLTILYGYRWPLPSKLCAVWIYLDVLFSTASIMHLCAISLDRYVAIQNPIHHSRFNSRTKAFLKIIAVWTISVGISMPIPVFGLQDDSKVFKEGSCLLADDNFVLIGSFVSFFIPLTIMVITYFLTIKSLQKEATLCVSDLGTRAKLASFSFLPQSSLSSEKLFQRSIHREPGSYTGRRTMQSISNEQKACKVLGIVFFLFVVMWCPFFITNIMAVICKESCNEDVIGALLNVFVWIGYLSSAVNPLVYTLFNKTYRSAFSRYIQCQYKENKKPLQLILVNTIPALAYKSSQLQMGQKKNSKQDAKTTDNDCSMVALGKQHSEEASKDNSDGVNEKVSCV
Chain of alpha-adrenergic-1A (α1A) receptor (P35348 whole entry): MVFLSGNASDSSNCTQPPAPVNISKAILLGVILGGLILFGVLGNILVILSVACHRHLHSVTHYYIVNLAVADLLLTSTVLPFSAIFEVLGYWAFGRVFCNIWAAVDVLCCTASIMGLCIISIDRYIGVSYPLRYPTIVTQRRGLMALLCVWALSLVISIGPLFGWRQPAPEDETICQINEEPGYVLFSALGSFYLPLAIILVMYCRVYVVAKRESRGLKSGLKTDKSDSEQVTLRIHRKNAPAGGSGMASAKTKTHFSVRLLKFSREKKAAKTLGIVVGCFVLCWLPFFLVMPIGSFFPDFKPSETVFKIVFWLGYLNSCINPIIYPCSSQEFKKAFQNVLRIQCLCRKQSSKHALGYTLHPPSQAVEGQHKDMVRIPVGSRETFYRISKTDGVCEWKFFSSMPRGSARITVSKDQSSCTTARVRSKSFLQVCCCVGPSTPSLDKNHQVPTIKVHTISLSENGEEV

5-HT2A receptor antagonist activity [1]: potent | α1A receptor antagonist activity [2]: potent
SMILES: CN(C)CCC=C1c2ccccc2C=Cc2ccccc21 [Cyclobenzaprine, 3-(5H-dibenzola[a,d]cyclohepten-5-ylidene)-N,N-dimethyl-1 propanamine]

SMILES: CN(C)CCC[C@@]1(c2ccc(F)cc2)OCc2cc(C#N)ccc21 [escitalopram]
preventing development of PTSD versus placebo [3]: failed to perform any better than the placebo

SMILES: Fc1ccc([C@@H]2CCNC[C@H]2COc2ccc3c(c2)OCO3)cc1 [paroxetine]
efficacy as a PTSD treatment (long-standing PTSD, average of 15 years since the trauma): offered patients with long-standing PTSD relief | improvement by time since trauma (trauma more than 5 years prior to treatment versus more recent trauma): greater improvement
